Measured values: US20100016285A1, “HETEROCYCLIDENE-N-(ARYL) ACETAMIDE DERIVATIVE” (MOCHIDA PHARMACEUTICAL CO., LTD., priority 2007, published 2010)
Like-named read-outs stand apart in the source and are kept apart here.

Key:
[1] = target: T1, human TRPV1 (Homo sapiens, UniProt Q8NER1); experiment: Capsaicin (10 nmol/L)-induced Ca influx in transformed CHO cells, FDSS-6000 (b-2), IC50; type: cell-based
T1 construct: expressed in transfected cells; host or cells: CHO-K1 cells, pCAGGS vector, clones selected by limiting dilution
T1 sequence (Q8NER1 whole entry): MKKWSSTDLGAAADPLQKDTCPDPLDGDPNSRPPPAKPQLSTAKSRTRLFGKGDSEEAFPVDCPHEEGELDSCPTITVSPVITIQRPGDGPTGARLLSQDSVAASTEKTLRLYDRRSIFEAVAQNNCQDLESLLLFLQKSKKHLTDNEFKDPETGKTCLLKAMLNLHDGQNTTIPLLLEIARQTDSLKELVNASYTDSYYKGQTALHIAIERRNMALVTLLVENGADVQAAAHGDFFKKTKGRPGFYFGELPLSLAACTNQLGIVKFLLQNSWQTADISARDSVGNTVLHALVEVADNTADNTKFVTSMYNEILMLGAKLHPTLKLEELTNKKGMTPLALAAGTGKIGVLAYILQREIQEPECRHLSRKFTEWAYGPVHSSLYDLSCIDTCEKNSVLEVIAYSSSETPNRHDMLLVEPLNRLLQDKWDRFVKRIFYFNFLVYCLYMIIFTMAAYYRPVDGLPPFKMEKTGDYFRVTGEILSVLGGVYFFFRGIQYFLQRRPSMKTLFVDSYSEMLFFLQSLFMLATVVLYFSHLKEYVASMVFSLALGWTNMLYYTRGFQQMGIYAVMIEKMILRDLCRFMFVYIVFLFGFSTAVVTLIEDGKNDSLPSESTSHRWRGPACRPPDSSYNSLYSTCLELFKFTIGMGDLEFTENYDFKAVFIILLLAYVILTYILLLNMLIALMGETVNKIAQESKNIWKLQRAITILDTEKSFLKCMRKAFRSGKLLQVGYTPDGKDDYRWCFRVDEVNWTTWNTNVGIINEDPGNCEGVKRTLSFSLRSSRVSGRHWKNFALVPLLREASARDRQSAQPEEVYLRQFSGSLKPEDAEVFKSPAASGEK
Source text: (1) Measurement of Capsaicin-Induced Ca Influx in a Transformed CHO Cell Line Expressing Human TRPV1
(a) Establishment of a Transformed CHO Cell Line Expressing Human and Rat TRPV1
Human and rat vanilloid receptor 1 (hTRPV1 and rTRPV1) cDNA was cloned from human brain and rat dorsal root ganglion, respectively. The cloned TRPV1 cDNA was incorporated in a pCAGGS vector. The vector was introduced to a CHO-K1 cell line, thus performing transformation. Clones obtained by limiting dilution were stimulated with capsaicin. Clones with a high responsiveness were selected using an increase in the Ca concentration as an indicator. The selected clones were used for the following experiment.
(b-2) Measurement of Ca Influx using FDSS-6000
The transformed CHO cells expressing human or rat TRPV1 were inoculated in a 96-well plate (with black walls and transparent bottoms, manufactured by Greiner) at a density of 40,000 cells per well. The cells were cultured at 37° C. in 5% CO2 atmosphere for one night. A loading solution of FLIPR Calcium 3 assay kit (manufactured by Molecular Devices Corporation) containing 2.5 mmol/L of probenecid was then added to each of the wells in the same amount as the culture medium, and the cells were cultured at 37° C. for 60 minutes. For three minutes after the cells were stimulated with capsaicin (10 nmol/L), the change of the intracellular Ca concentration was measured using FDSS-6000 (λex: 480 nm, λem: 540 nm, manufactured by Hamamatsu Photonics K.K.). The integrated values of the increase rate of the intracellular Ca concentration were calculated for a group treated with the compounds of the present invention and a group treated with a vehicle. Then, the concentration of the compound of the present invention was calculated that inhibits 50% of the intracellular Ca concentration increase induced by capsaicin (IC50). Using this value as the index, inhibitory effects of the test compounds were compared. In addition, when IC50 value in human TRPV1 was less than 100 nmol/L, it was shown as A in Table 1C.

[2] = Effects on rectal temperature (8-2), administration into tail veins of rats; type: in vivo, rat; details: Intravenous, single dose of 1 mg/kg; 15, 30 and 60 minutes; maximum absolute difference vs vehicle
Procedure: (§1) (8-2) Effects on Rectal Temperature
A test compound was administered to rats into tail veins at single dose of 1 mg/kg. Then rectal temperature was measured 15, 30 and 60 minutes after administration.
(§2) Differences of the mean value between a group treated with test substance and a vehicle-treated group were calculated at all measuring points and, based on the maximum absolute value of differences, changes in rectal temperature were divided into the following three categories:
(§3) −: the maximum value was less than 0.5 degree Celsius +: the maximum value was more than 0.5 degree but less than 1.0 degree Celsius ++: the maximum value was more than 1.0 degree Celsius

[3] = Effects on rectal temperature (8-2), oral administration to rats; type: in vivo, rat; details: single dose of 10 mg/kg, 30, 60 and 120 minutes, maximum absolute difference vs vehicle
Procedure: as §1
A test compound was orally administered to rats at single dose of 10 mg/kg. Then rectal temperature was measured 30, 60 and 120 minutes after administration.
as §2, §3

[4] = Effects on rectal temperature (8-1), oral administration to rats; type: in vivo, rat; details: oral single doses of 3, 10 and 30 mg/kg; 30, 60 and 120 minutes; maximum absolute difference vs vehicle
Procedure: (8-1) Effects on Rectal Temperature
A test compound was orally administered to rats at single doses of 3, 10 and 30 mg/kg. Then rectal temperature was measured 30, 60 and 120 minutes after administration.
as §2, §3

[5] = cited from earlier work

Row | SMILES | Change of rat rectal temperature [2] | Change in rectal temperature in rats [4] | other results
1 | CN1C(=O)NCc2c(NC(=O)/C=C3\CC(C)(C)Oc4cc(C(F)(F)F)ccc43)cccc21 [Example 305, (E)-2-(2,2-dimethyl-7-trifluoromethylchroman-4-ylidene)-N-(3,4-dihydro-1-methyl-2(1H)-quinazolinone-5-yl)acetamide] | − (the maximum value was less than 0.5 degree Celsius) |  | IC50 [1]: < 100 nM
2 | CC(=O)Nc1nc2c(Oc3cc(-c4ccc(C(F)(F)F)cc4)ncn3)cccc2s1 [Compound C, N-(4-[6-(4-trifluoromethyl-phenyl)-pyrimidin-4-yloxy]-benzothiazol-2-yl)-acetamide, reference compound] |  | ++ (increased) (the maximum value was more than 1.0 degree Celsius) | Change of rat rectal temperature [3]: ++ (Increase) (the maximum value was more than 1.0 degree Celsius)
3 | O=C(/C=C1\CCCOc2cc(C(F)(F)F)ccc21)Nc1cccc2c1CC(O)CN2 (centres unmarked) [Compound D, (E)-2-(8-trifluoromethyl-3,4-dihydrobenzo[b]oxepin-5(2H)-ylidene)-N-(3-hydroxy-1,2,3,4-tetrahydroquinolin-5-yl)acetamide, reference compound] | + (Increase) (the maximum value was more than 0.5 degree but less than 1.0 degree Celsius) | ++ (increased) (the maximum value was more than 1.0 degree Celsius) | 
4 | CC(C)(C)c1ccc(/C=C/C(=O)Nc2ccc3c(c2)OCCO3)cc1 [Compound B, (E)-3-(4-t-butylphenyl)-N-(2,3-dihydrobenzo[b][1,4]dioxine-6-yl)acrylamide] |  |  | Change of rat rectal temperature ([5]; Intraperitoneal, reference information (Non-Patent Document 4 or 5)): Increase^1); Change in rectal temperature in rats ([5]; from published information (Non-Patent Document 4 or 5)): Increased^1)
